Data as given in ChEMBL document CHEMBL1146841, “Discovery of thiochroman derivatives bearing a carboxy-containing side chain as orally active pure antiestrogens” (Bioorg Med Chem Lett, 2006).

How the values were obtained:
Mus musculus [1] = experiment: Antagonist activity assessed as inhibition of estrogen-stimulated uterine weight gain in ovariectomized mouse at 10 mg/kg, po; format: functional
[2] = molecular target: T1, Estrogen receptor (Homo sapiens) (UniProt P03372); experiment: Displacement of [3H]estradiol from human recombinant ERalpha relative to estradiol
T1 sequence (whole entry): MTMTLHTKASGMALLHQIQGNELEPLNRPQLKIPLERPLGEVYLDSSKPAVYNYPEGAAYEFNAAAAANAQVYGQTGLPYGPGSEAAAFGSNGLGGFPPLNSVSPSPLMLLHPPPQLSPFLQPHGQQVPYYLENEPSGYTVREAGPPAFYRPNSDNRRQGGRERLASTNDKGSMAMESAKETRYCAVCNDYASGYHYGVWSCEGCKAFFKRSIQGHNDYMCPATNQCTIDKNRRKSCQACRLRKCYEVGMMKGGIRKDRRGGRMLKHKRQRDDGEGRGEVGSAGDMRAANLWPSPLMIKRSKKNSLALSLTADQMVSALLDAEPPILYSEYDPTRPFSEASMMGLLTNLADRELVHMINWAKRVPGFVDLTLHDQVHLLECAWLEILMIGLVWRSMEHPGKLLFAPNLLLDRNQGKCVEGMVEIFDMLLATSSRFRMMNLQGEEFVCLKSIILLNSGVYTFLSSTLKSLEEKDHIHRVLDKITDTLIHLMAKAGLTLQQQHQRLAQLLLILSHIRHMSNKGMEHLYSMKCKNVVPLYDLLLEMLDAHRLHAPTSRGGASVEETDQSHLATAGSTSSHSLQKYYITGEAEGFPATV

Mus musculus [3] = experiment: Antagonist activity assessed as inhibition of estrogen-stimulated uterine weight gain in ovariectomized mouse at 10 mg/kg, sc; format: functional; settings: route subcutaneous
Mus musculus [4] = experiment: Agonist activity assessed as increase in uterine weight in ovariectomized mouse at 10 mg/kg, sc; format: functional; settings: route subcutaneous
Mus musculus [5] = experiment: Antagonist activity assessed as inhibition of estrogen-stimulated uterine weight gain in ovariectomized mouse at 30 mg/kg, po; format: functional
Mus musculus [6] = experiment: Antagonist activity assessed as inhibition of estrogen-stimulated uterine weight gain in ovariectomized mouse at 3 mg/kg, po; format: functional
Mus musculus [7] = experiment: Antagonist activity assessed as inhibition of estrogen-stimulated uterine weight gain in ovariectomized mouse at 50 mg/kg, po; format: functional
[8] = AUC in duodenally dosed Sprague-Dawley rat peripheral blood at 10 mg/kg; format: ADME, organism-based; set-up: dose 10 mg/kg, route intraduodenal
[9] = AUC in duodenally dosed Sprague-Dawley rat portal vein at 10 mg/kg; format: ADME, organism-based; set-up: dose 10 mg/kg, route intraduodenal; settings: portal vein plasma
Rattus norvegicus [10] = experiment: AUC in Sprague-Dawley rat at 10 mg/kg, iv; format: ADME, organism-based, Plasma; set-up: dose 10 mg/kg, route intravenous; settings: in vivo
[11] = Bioavailability in Sprague-Dawley rat; format: ADME, organism-based; settings: in vivo
[12] = (§1) AUC in Sprague-Dawley rat at 20 mg/kg, po; format: ADME, organism-based, Plasma; set-up: dose 20 mg/kg, route oral; settings: Sprague-Dawley, plasma
Rattus norvegicus [13] = experiment: as §1; format: ADME, organism-based, Plasma; set-up: dose 20 mg/kg, route oral; settings: in vivo

Row | SMILES | inhibition in vivo at 10 mg/kg (Mus musculus [1]) [%] | RBA [2] [%] | inhibition in vivo at 10 mg/kg (Mus musculus [3]) [%] | Activity (Mus musculus [4]) [%] | inhibition in vivo at 30 mg/kg (Mus musculus [5]) [%] | inhibition in vivo at 3 mg/kg (Mus musculus [6]) [%] | inhibition in vivo at 50 mg/kg (Mus musculus [7]) [%] | AUC [8] [ng·h/mL] | AUC [9] [ng·h/mL] | AUC (Rattus norvegicus [10]) [ng·h/mL] | bioavailability [11] [%] | AUC [12] [ng·h/mL] | AUC (Rattus norvegicus [13]) [ng·h/mL]
1 | C[C@]1(c2ccc(O)cc2)COc2cc(O)ccc2[C@H]1CCCCCCCCCNC(=O)NCCCC(F)(F)C(F)(F)F | 1 | 57 | 77 | 10 | – | – | – | – | – | – | – | – | –
2 | C[C@]1(c2ccc(O)cc2)CSc2cc(O)ccc2[C@H]1CCCCCCCCC(CCCC(F)(F)C(F)(F)C(F)(F)C(F)(F)F)C(=O)O (some centres undefined) | 93 | 0.3 | – | – | 99 | 61 | – | – | – | – | – | – | –
3 | C[C@]1(c2ccc(O)cc2)COc2cc(O)ccc2[C@H]1CCCCCCCCCNS(=O)(=O)NCCCC(F)(F)C(F)(F)F | 41 | 42 | 100 | 1 | – | – | 69 | – | – | – | – | – | –
4 | C[C@]1(c2ccc(O)cc2)CSc2cc(O)ccc2[C@H]1CCCCCCCCCC(CCCC(F)(F)C(F)(F)C(F)(F)C(F)(F)F)C(=O)O (some centres undefined) | 86 | 0.4 | – | – | 100 | 55 | – | – | – | – | – | – | –
5 | C[C@]1(c2ccc(O)cc2)CSc2cc(O)ccc2[C@H]1CCCCCCCCC(CCCCCC(F)(F)C(F)(F)F)C(=O)O (some centres undefined) | 86 | 0.8 | – | – | 94 | 52 | – | – | – | – | – | – | –
6 | C[C@]1(c2ccc(O)cc2)CSc2cc(O)ccc2[C@H]1CCCCCCCCCCC(CCCC(F)(F)C(F)(F)F)C(=O)O (some centres undefined) | 62 | 0.2 | – | – | – | – | – | – | – | – | – | – | –
7 | C[C@]1(c2ccc(O)cc2)CSc2cc(O)ccc2[C@H]1CCCCCCCCC[S+]([O-])CCCC(F)(F)C(F)(F)F (some centres undefined) | 51 | 200 | 101 | -2 | – | – | 94 | 13 | 88 | 8220 | 22 | 3590 | –
8 | C[C@]12CC[C@@H]3c4ccc(O)cc4C[C@@H](CCCCCCCCC[S+]([O-])CCCC(F)(F)C(F)(F)F)[C@H]3[C@@H]1CC[C@@H]2O (some centres undefined) [FULVESTRANT] | 54 | 138 | 95 | -1 | 72 | 29 | 86 | 7 | 56 | 5300 | 16 | – | 1670
9 | C[C@]1(c2ccc(O)cc2)CSc2cc(O)ccc2[C@H]1CCCCCCCCC(CCCC(F)(F)C(F)(F)F)C(=O)O (some centres undefined) | 77 | 0.8 | 95 | 1 | 94 | 41 | – | 2040 | 2510 | 228000 | 46 | – | 209000
10 | C[C@]1(c2ccc(O)cc2)COc2cc(O)ccc2[C@H]1CCCCCCCCC[S+]([O-])CCCC(F)(F)C(F)(F)F (some centres undefined) | 66 | 96 | 94 | 1 | – | – | 88 | – | – | – | – | – | –
11 | C[C@]1(c2ccc(O)cc2)CSc2cc(O)ccc2[C@H]1CCCCCCCCC(CCC(F)(F)C(F)(F)C(F)(F)C(F)(F)F)C(=O)O (some centres undefined) | 93 | 0.6 | – | – | 96 | 63 | – | – | – | – | – | – | –
12 | C[C@]1(c2ccc(O)cc2)CSc2cc(O)ccc2[C@H]1CCCCCCCCCNC(=O)NS(=O)(=O)CCCC(F)(F)C(F)(F)F | – | 1.2 | 33 | 8 | – | – | – | – | – | – | – | – | –
13 | C[C@]1(c2ccc(O)cc2)CSc2cc(O)ccc2[C@H]1CCCCCCCC(CCCC(F)(F)C(F)(F)F)C(=O)O (some centres undefined) | 20 | 0.5 | – | – | – | – | – | – | – | – | – | – | –
14 | C[C@]1(c2ccc(O)cc2)CSc2cc(O)ccc2[C@H]1CCCCCCCCCC(CCCCC(F)(F)C(F)(F)F)C(=O)O (some centres undefined) | 79 | 0.2 | – | – | 96 | 53 | – | – | – | – | – | – | –
15 | COC(=O)C(CCCCCCCC[C@@H]1c2ccc(O)cc2SC[C@]1(C)c1ccc(O)cc1)CCCC(F)(F)C(F)(F)F (some centres undefined) | 40 | 7 | 52 | -1 | – | – | – | – | – | – | – | – | –
16 | C[C@]1(c2ccc(O)cc2)CSc2cc(O)ccc2[C@H]1CCCCCCCCCC(CCC(F)(F)C(F)(F)C(F)(F)C(F)(F)F)C(=O)O (some centres undefined) | 85 | 0.3 | – | – | 99 | 38 | – | – | – | – | – | – | –
17 | C[C@]1(c2ccc(O)cc2)CSc2cc(O)ccc2[C@H]1CCCCCCCCCNS(=O)(=O)CCCC(F)(F)C(F)(F)F | 31 | 52 | 99 | 3 | – | – | 73 | – | – | – | – | – | –
18 | C[C@]1(c2ccc(O)cc2)CSc2cc(O)ccc2[C@H]1CCCCCCCCC(CCCCC(F)(F)C(F)(F)F)C(=O)O (some centres undefined) | 87 | 1.3 | – | – | 97 | 69 | – | – | – | – | – | – | –
19 | C[C@]1(c2ccc(O)cc2)CSc2cc(O)ccc2[C@H]1CCCCCCCCCC(CCCC(F)(F)C(F)(F)F)C(=O)O (some centres undefined) | 81 | 0.9 | – | – | – | 45 | – | – | – | – | – | – | –
